{"source": "patent US20020010201A1", "about": "(priority 1999, published 2002)", "key": {"[1]": {"system": "patients with RLS", "assay": "Treatment of 2 patients with RLS (therapeutic history, monotherapies and combination therapy of pramipexole and clonidine)", "procedure": "1. […] The clonidine was also initially prescribed in a single dose of 0.075 mg two hours before bedtime and increased by 0.075 mg at intervals of 3 days.\n2. Treatment with a Combination Therapy of Clonidine and Pramipexole After slowly bringing the clonidine therapy to a complete halt and after a treatment-free period of about 1 week, both patients were treated with a combination of 0.088 mg of pramipexole and 0.075 mg of clonidine. […] After 7 days the dosage of pramipexole had been increased to 0.18 mg and the dosage of clonidine to 0.15 mg, two hours before going to sleep."}, "[2]": {"system": "Restless Legs Syndrome patients", "conditions": "cited from earlier work; for effectiveness in RLS: short-term therapy trials of dopamine agonists"}, "[3]": {"conditions": "clonidine monotherapy, single dose before bedtime, 0.225 mg (male) / 0.45 mg (female)"}}}
{"compound": "Cc1nnc2n1-c1sc(Br)cc1C(c1ccccc1Cl)=NC2", "note": "[Brotizolam]", "values": [{"measurement": "falling asleep and sleeping through", "setting": "[1]; previous therapy, prescribed for limited time only", "result": "improved the falling asleep and sleeping through"}]}
{"compound": "NC(=O)N1c2ccccc2C=Cc2ccccc21", "note": "[Carbamazepine]", "values": [{"measurement": "relief from the complaint", "setting": "[2]; a few partly open trials", "result": "only partial relief from the complaint"}]}
{"compound": "N[C@@H](Cc1ccc(O)c(O)c1)C(=O)O", "note": "[L-DOPA]", "values": [{"measurement": "disadvantage of therapy (loss of effectiveness, rebound, augmentation)", "setting": "[2]; in vivo", "result": "effectiveness declines and/or there is a shift of the RLS problems to the morning (rebound) or afternoon (augmentation)"}, {"measurement": "alleviation of the complaint", "setting": "[2]; long-term therapy, with improvement in quality of life and sleep", "result": "significant alleviation of the complaint"}, {"measurement": "augmentation", "setting": "[1]; human, in vivo", "result": "typical augmentation during the day"}]}
{"compound": "CC(C)C[C@H]1C(=O)N2CCC[C@H]2[C@]2(O)O[C@](NC(=O)[C@@H]3C[C@@H]4c5cccc6[nH]cc(c56)C[C@H]4N(C)C3)(C(C)C)C(=O)N12", "note": "[alphadihydroergocryptine]", "values": [{"measurement": "effectiveness in RLS", "setting": "[2]", "result": "found to be effective"}]}
{"compound": "C=CCN1C[C@H](C(=O)N(CCCN(C)C)C(=O)NCC)C[C@@H]2c3cccc4[nH]cc(c34)C[C@H]21", "note": "[cabergoline]", "values": [{"measurement": "effectiveness in RLS", "setting": "[2]", "result": "found to be effective"}]}
{"compound": "Clc1cccc(Cl)c1NC1=NCCN1", "note": "[clonidine, 2-(2,6-dichloroanilino)-4,5-dihydroimidazole]", "values": [{"measurement": "perceived symptoms such as paresthesia, compulsive movement and tiredness during the day", "setting": "[2]; 4 open trials, 2 double-blind placebo-controlled trials, single case study, daily doses 0.1-0.9 mg", "result": "(statistically significant) reduction in perceived symptoms"}, {"measurement": "sleep latency (polysomnographic)", "setting": "[2]; daily doses 0.1-0.9 mg", "result": "shortened"}, {"measurement": "quality of sleep, frequency of waking or periodic leg movements in sleep (PLMS)", "setting": "[2]; polysomnographic, daily doses 0.1-0.9 mg", "result": "not affected"}, {"measurement": "compulsive movements", "setting": "[1]; [3]", "result": "had also improved"}, {"measurement": "paresthesia", "setting": "[1]; [3]", "result": "felt hardly any paresthesia"}, {"measurement": "quality of sleep and number of times they woke during the night", "setting": "[1]; [3]", "result": "had not changed"}]}
{"compound": "CCN(CC)C(=O)N[C@H]1C=C2c3cccc4[nH]cc(c34)C[C@H]2N(C)C1", "note": "[lisuride]", "values": [{"measurement": "effectiveness in RLS", "setting": "[2]", "result": "found to be effective"}]}
{"compound": "CCCN1C[C@H](CSC)C[C@@H]2c3cccc4[nH]cc(c34)C[C@H]21", "note": "[pergolide]", "values": [{"measurement": "effectiveness in RLS", "setting": "[2]", "result": "found to be effective"}, {"measurement": "side effects preventing further dose increase", "setting": "[1]; previous therapy of the 2 RLS patients", "result": "side effects such as nausea, gastrointestinal problems and dizziness"}]}
{"compound": "CCCN[C@H]1CCc2nc(N)sc2C1", "note": "[pramipexole, (S)-2-amino-6-n-propylamino-4,5,6,7-tetrahydro-benzothiazole]", "values": [{"measurement": "effectiveness in RLS", "setting": "[2]", "result": "found to be effective"}, {"measurement": "symptoms", "setting": "[1]; pramipexole monotherapy, 0.088 mg two hours before bedtime, increased to 0.36 mg (male) / 0.27 mg (female) daily, no difference from earlier therapy", "result": "symptoms certainly improved"}]}
{"compound": "CCCN(CCC)CCc1cccc2c1CC(=O)N2", "note": "[ropinirol]", "values": [{"measurement": "effectiveness in RLS", "setting": "[2]", "result": "found to be effective"}]}
{"compound": "bromocryptine", "values": [{"measurement": "effectiveness in RLS", "setting": "[2]", "result": "found to be effective"}]}
